The text below walks through data of patent US9249184B2, “Cardiac-specific protein targeting domain” (University of Pittsburgh—of the Commonwealth System of …, priority 2010, dated 2016).

Ends that are not written are not given here.

Experiment [1] has as its system human heart tissue. In words: Ex vivo transduction of human explanted heart slices (confocal microscopy). The note with it: separate explanted heart; 500 ul of 1 mM solution; 30 mins at 37° C. The protocol:
Human explanted hearts were obtained from the operating rooms of UPMC at the time of ongoing heart transplants. Heart tissue was dissected from the proximal part or the base of the heart to avoid the more scarred, infarcted, distal tissue. Small 1-2 mm thick slices of heart tissue were taken and incubated with CTP-6CF (500 ul of a 1 mM solution) or PBS, for 30 and 60 mins, at 37° C./5% CO2. At the end of the incubation period, the heart slices were washed in PBS 6 times, fixed in 2% paraformaldehyde for 4 hrs at room temperature, followed by 30% sucrose overnight at 4° C. Next day the tissue was frozen in liquid nitrogen-chilled isopentane and stored 58
at −80° C., for later cryosectioning, cross-staining with DRAQ5 and confocal microscopy. Confocal micrographs were obtained avoiding the edges because of the necessary damage associated with dissecting the heart tissue pieces. Confocal micrographs were taken 3-4 cell layers away from any edges.
To investigate if this transduction was indeed peptide specific, and not secondary to increased membrane leakiness resulting from tissue being ischemic, we incubated thin, 1-2 mm thick, heart slices, from a separate explanted heart, in only 6CF in PBS, CTP-6CF, RAN-6CF as well as 6CF labeled 6-Arginine, a known PTD. We also incubated heart slices with Evans blue dye (EBD) to assess for membrane leakiness. […]

For experiment [2] the following is noted: in vitro phage display; cited from earlier work.
The conditions of experiment [3]: in vitro phage display; cited from earlier work. This is another data set of the same source.
The subject of experiment [4] is heart, liver, lung, spleen, kidney, skeletal muscle and brain. In words: In vivo tissue transduction by biotinylated peptides coupled to Streptavidin-Alexa488 (confocal microscopy). The conditions noted are these: 10 mg/Kg i.v.; 30 minutes post-injection. Also noted: species or system Balb/c mice. On the procedure:
In vivo imaging studies. The initial in vivo targeting studies were performed using CTP-6CF. Female Balb/C mice were injected retro-orbitally with CTP-6CF (25 mg/Kg) and euthanized 15 minutes later, Heart cross-sections were stained for actin using phalloidin Alexa-647 (Molecular Probes, A22287) and stained for laminin using a rabbit anti-laminin antibody followed by a goat anti-rabbit Cy3 (Jackson ImmunoResearch, 111-167-003) secondary antibody. Five non-overlapping sections were taken from each heart for quantification of green fluorescence (CTP-6CF) expressed as a percentage of total area (blue; stained for actin). A control peptide (CON; […]; SEQ ID NO:15), picked from the original, unselected M13 phage library, CTP and 8-Lysine (8K, a homopolymer of lysine), a known cationic protein transduction domain, were synthesized in a biotinylated form. 200 mM of biotinylated CTP, CON and 8K, or equivalent volume of PBS, were incubated with 10 ul of Streptavidin-Alexa488 (2 ng/ml; Molecular Probes, 532354) for 2 hours at room temperature. Female Balb/c mice were intravenously (retro-orbitally) injected with peptides at a dose of 10 mg/Kg and then euthanized 30 minutes post-injection. […] For confocal microscopy, laser intensities/gains were set using negative control (PBS injected) heart tissue to minimize background fluorescence. […]

The subject of experiment [5] is myocardial infarct. As to the kind of experiment: Murine infarct model (left artery ligation). The format is in vivo, Balb/c mice. The note with it: 8K-NBD study; 5 mg/Kg/injection i.p. post-op day 0, 1, 2; day 7; vs PBS. From the text:
The following protocol was used and kept consistent from one set of experiments to another and between groups. Female, Balb/c, 10-20 week old mice were used for these set of studies. Female mice were chosen because of the ability to house 5/cage, as opposed to male mice (4/cage) and more importantly because female mice are able to tolerate cardiac insults better with lower post-operative mortality (19). Mice were anesthetized with intraperitoneal (i.p.) injection of 2.5% Avertin (a mixture of 15.5 ml tert-amyl alcohol to 25 grams of 2-2-2 Tribromoethanol-stock solution diluted to 2.5% concentration with PBS) at a dose of 15 μl/gm of body weight. Adequate anesthetic level was assessed by lack of response to toe-pinch and lack of a gag reflex. Mice were intubated, using direct visualization of the vocal chords, with a 22 G cannula and placed on a Harvard rodent ventilator apparatus. Tube placement was confirmed by symmetric expansion of the thoracic cavity. Mice were ventilated with ˜0.1 cc/breath tidal volume at a rate of 110 breaths/minute. […]
Mice were euthanized on post-operative day 7. […] The three sections were H&E stained, light microscopy photographs taken, and area of infarct in each section mapped out using computer software Metamorph and expressed as a percent of the whole heart. […]

In experiment [6] the test system is apoptosis in heart. In words: TUNEL staining of heart cross-sections in the murine infarct model. The conditions noted are these: 8K-NBD study; 5 mg/Kg/injection i.p. post-op day 0, 1, 2; day 7. Format: in vivo, Balb/c mice. The protocol:
A cross-section from each heart was taken and apoptosis assessed by TUNEL staining. The nuclei were stained with Dapi, and the number of TUNEL positive nuclei expressed as a percentage of total nuclei in each field. The whole heart cross-section was taken into consideration by taking 5-6 contiguous, non-overlapping sections from each heart. […] FIG. 18 illustrates the TUNEL staining data in a quantitative manner.

With `O=C(O)c1ccc2c(c1)C1(OC2=O)c2ccc(O)cc2Oc2cc(O)ccc21` [6CF, 6-carboxyfluorescene], the “uptake in human heart slices ex vivo (confocal microscopy)” value in experiment [1] was “occasional cells showing fluorescence”.
Consider `Cc1cc(-c2ccc(/N=N/c3ccc4c(S(=O)(=O)[O-])cc(S(=O)(=O)[O-])c(N)c4c3O)c(C)c2)ccc1/N=N/c1ccc2c(S(=O)(=O)[O-])cc(S(=O)(=O)[O-])c(N)c2c1O.[Na+].[Na+].[Na+].[Na+]` [EBD, Evans blue dye], for which the “uptake in human heart slices ex vivo (confocal microscopy)” value in experiment [1] is reported as “did not show any fluorescence”.
As for APWHLSSQYSRT [CTP], in experiment [2], the “affinity for binding to two specific sulfated carbohydrates” value is given as “high affinity”. Further, the “affinity for binding to apatite-based, bone-like minerals” value in experiment [3] is reported as “high affinity”.
Take “CON-SA488: biotinylated control peptide CON (ARPLEHGSDKAT) coupled to Streptavidin-Alexa488 (also: biotinylated, coupled to streptavidin-Alexa488)”: the “uptake in any organ” value in experiment [4] is “did not show appreciable uptake”.
In the case of “KKKKKKKK-TTLDASALQME (KKKKKKKKTTLDASALQME) [8K-mutNBD]”, in experiment [5], the “heart-weight to body-weight ratio” value is reported as “did not differ” and the infarct size result was “worse”. Also, in experiment [6], the “TUNEL positive (apoptotic) nuclei” value was “lesser number of apoptotic nuclei”.
